This note sets out measurements from patent publication US10023579B2, “Pyrrolopyrimidine compounds, use as inhibitors of the kinase LRRK2, and methods for preparation thereof” (Southern Research Institute, priority 2015, dated 2018).

Structures are written as SMILES. Several values for one entry are separate records, joined by “and”; a condition that tells them apart may be missing. Equal entries are not always repeated.

Assay [1] deals with T1, G2019S-LRRK2 (recombinant GST-LRRK2 delta970) (Homo sapiens, UniProt Q5S007, G2019S).
T1 construct: Recombinant GST-LRRK2 (delta970); GST (N); host or cells: baculovirus-infected Sf9 insect cells
T1 sequence (Q5S007 970-2527 G2019S limits assumed): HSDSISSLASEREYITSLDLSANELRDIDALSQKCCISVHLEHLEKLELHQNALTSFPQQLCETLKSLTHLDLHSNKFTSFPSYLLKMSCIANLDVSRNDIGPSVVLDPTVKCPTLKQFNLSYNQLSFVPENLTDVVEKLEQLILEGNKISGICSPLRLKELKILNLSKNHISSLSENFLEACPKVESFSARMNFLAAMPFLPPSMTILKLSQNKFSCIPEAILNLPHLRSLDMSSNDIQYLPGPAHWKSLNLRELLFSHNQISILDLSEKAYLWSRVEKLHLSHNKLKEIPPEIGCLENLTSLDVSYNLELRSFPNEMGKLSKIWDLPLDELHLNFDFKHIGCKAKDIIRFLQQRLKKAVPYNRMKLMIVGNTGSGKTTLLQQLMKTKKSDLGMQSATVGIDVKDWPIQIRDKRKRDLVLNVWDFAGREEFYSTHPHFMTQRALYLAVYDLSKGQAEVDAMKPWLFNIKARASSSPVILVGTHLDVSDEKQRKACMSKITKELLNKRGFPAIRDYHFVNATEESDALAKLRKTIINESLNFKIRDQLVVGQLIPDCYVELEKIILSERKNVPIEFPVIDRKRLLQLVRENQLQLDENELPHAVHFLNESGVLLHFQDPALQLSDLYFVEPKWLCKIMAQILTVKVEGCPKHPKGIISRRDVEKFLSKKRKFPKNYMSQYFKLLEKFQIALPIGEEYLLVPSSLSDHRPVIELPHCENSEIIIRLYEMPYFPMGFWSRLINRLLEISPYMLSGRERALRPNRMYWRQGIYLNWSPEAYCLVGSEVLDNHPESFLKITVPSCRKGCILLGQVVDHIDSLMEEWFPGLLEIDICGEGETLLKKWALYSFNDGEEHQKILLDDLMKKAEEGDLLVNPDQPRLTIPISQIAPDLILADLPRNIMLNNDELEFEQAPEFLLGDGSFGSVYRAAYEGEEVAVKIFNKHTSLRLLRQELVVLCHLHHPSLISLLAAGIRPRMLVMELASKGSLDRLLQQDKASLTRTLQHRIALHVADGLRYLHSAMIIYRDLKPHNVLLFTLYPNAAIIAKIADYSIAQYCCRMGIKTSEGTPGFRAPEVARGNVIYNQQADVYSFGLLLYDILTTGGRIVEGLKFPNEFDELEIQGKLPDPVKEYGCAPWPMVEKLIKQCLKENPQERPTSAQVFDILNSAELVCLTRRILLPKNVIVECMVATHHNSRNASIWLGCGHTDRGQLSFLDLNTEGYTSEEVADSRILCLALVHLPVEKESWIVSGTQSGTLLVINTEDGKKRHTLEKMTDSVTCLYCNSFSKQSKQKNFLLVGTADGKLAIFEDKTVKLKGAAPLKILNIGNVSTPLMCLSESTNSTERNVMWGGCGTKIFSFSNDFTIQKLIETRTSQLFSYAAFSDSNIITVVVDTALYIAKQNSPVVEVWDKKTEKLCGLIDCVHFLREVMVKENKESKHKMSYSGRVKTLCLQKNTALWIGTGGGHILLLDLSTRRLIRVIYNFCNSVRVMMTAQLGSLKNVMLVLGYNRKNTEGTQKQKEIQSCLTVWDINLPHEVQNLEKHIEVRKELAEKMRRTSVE
Briefly: LRRK2 kinase assay, G2019S mutant (32P radiometric, peptide substrate). The assay is classed as biochemical. The note with it: G2019S-LRRK2 30 nM, ATP ~52 μM (Km), 30 min at 30° C. The procedure:
(§1) Compounds were assessed for inhibition of LRRK2 inhibition using the following procedure. Recombinant GST-LRRK2 (delta970) purified from baculovirus infected insect cells (SF9), at least 90% pure and either wild-type sequence or bearing the pathogenic G2019S mutation, was combined into a kinase buffer at 30 nM concentration. Kinase buffer consists of 50 mM Tris HCl pH 7.4, 1 mM EDTA, and 50 μM peptide substrate (amino acid sequence […]). Experimental compounds or control (no compound) were added at desired concentrations in DMSO and water, where final concentration of DMSO in kinase reactions was 0.1% for all drug concentrations. […] Reactions were incubated at 1400 RPM at 30° C. for 30 min. and then spotted in triplicate directly onto a slot-blot apparatus fitted with phospho-cellulose paper and allowed to dry. Each slot was then washed with 10 mM phosphoric acid buffer until beta-radiation could not be detected in eluted wash buffer, usually ˜1 mL per slot. Paper within each slot were excised and radiation measured by liquid scintillation.

In assay [2] the target is T2, WT-LRRK2 (recombinant GST-LRRK2 delta970) (Homo sapiens, UniProt Q5S007).
T2 construct: Recombinant GST-LRRK2 (delta970); GST (N); host or cells: baculovirus-infected Sf9 insect cells
T2 sequence (Q5S007 970-2527 limits assumed): as the sequence (Q5S007 970-2527 G2019S limits assumed) above, with S1050G counted along it
Briefly: LRRK2 kinase assay, wild type (32P radiometric, peptide substrate). The assay is classed as biochemical. The note with it: WT-LRRK2 30 nM, ATP ~92 μM (Km), 30 min at 30° C. The procedure:
as §1

Consider `C[C@H](Nc1nc(Nc2cnn(CCN(C)C)c2)nc2[nH]ccc12)C1CC1` [Compound 41, (S)-N4-(1-cyclopropylethyl)-N2-(1-(2-(dimethylamino)ethyl)-1H-pyrazol-4-yl)-7H-pyrrolo[2,3-d]pyrimidine-2,4-diamine], for which the IC50 was 0.065 µM in assay [1] and 0.05 µM in assay [2].
For `CCn1cc(Nc2nc(N[C@@H](C)C3CC3)c3cc[nH]c3n2)cn1` [Compound 29] the same measures were 0.017 µM and 0.012 µM.
For `C[C@H](Nc1nc(Nc2cn([C@H](C)CO)nn2)nc2[nH]ccc12)C1CC1` [Compound 55, (R)-2-(4-((4-(((S)-1-cyclopropylethyl)amino)-7H-pyrrolo[2,3-d]pyrimidin-2-yl)amino)-1H-1,2,3-triazol-1-yl)propan-1-ol], the IC50 in assay [1] was 0.013 µM and 0.032 µM; in assay [2], 0.009 µM and 0.019 µM.
Consider `C[C@H](Nc1nc(Nc2cnn(C)c2)nc2[nH]ccc12)C1CC1` [Compound 28, (S)-N4-(1-cyclopropylethyl)-N2-(1-methyl-1H-pyrazol-4-yl)-7H-pyrrolo[2,3-d]pyrimidine-2,4-diamine], for which the IC50 in assay [1] is 0.03 µM; in assay [2], 0.02 µM.
